Test results reported in US6608061B2, “Bisaryl compound and medicament for cancer treatment comprising the same” (Kyoma Hakko Kogyo Co., Ltd., priority 1997, dated 2003).
Read-outs that look alike come from different tables or passages of the source.

Columns and labels:
[1] = molecular target: T1, human RNR (purified R1 and R2 subunits) (Homo sapiens, UniProt P23921+P31350); assay: In vitro measurement of human RNR inhibitory activity (conversion of CDP to dCDP, HPLC); type: biochemical; settings: 100 μM CDP, 37° C., 30 minutes, read-out: RNR Inhibition (IC50)
T1 construct: made in house; host or cells: Escherichia coli BL21(λDE3)pLysS, plasmids pETR1 and pETR2 (pET3a backbone)
T1 sequence (P23921 1-792): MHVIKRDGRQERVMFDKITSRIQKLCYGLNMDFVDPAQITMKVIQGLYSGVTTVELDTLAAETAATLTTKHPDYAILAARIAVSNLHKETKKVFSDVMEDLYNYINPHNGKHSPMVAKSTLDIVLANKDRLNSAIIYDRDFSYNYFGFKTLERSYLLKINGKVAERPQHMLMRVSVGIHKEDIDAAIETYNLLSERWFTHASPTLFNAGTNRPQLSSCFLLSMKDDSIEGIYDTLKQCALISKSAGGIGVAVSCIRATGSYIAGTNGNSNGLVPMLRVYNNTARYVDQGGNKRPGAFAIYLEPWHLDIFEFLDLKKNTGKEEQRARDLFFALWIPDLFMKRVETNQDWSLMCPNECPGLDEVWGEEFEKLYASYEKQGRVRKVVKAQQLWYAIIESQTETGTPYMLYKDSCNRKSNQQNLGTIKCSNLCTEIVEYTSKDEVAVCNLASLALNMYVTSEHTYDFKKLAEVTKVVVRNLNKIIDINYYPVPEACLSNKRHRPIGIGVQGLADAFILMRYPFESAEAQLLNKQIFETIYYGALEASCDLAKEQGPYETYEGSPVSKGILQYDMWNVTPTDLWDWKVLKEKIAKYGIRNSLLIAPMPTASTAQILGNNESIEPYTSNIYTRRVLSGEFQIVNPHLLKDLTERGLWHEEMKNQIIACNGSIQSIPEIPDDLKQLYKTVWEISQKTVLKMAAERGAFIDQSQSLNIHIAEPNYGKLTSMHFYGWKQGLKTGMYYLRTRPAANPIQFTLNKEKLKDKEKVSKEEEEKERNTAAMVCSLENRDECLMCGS
T1 sequence (P31350 1-389): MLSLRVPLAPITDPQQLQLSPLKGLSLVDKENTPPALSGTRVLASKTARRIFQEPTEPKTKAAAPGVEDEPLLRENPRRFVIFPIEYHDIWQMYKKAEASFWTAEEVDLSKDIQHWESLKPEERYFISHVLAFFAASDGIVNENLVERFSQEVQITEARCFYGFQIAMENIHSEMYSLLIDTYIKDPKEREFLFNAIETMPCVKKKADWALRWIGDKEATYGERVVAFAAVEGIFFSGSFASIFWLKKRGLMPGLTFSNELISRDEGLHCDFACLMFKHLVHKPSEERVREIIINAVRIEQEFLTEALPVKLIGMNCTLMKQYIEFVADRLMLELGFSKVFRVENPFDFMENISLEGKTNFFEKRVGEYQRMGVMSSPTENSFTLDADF

[2] = test system: human ovary cancer A2780 cells; assay: Antineoplastic effect against human ovary cancer A2780 cells transplanted to nude mice; type: in vivo, nude mice BALB/cAJcl-nu; settings: Mus musculus, read-out: Antitumor activity T/C
Excerpt: Antineoplastic Effect Against Human Ovary Cancer A2780 Cells
2 mm cubes (tumor fragments of 8 mm^3) of human ovary cancer A2780 cells were subcutaneously transplanted to nude mice BALB/cAJcl-nu (CLEA JAPAN) in the abdomens. When the tumor volume reached to from 50 to 300 mm^3 after the transplantation, the mice were arbitrarily divided into groups each consisting of 5 mice, and intraperitoneally administered with a drug solution once a day for 5 days. After weighing compounds, the drug solution was prepared before use by dissolving the drug in 99.5% ethanol (final concentration: 5%, analytical grade, Kanto Kagaku) or N,N-dimethylacetamide (final concentration: 5%, analytical grade, Kanto Kagaku), adding CREMOPHOR EL (a derivative of caster oil and ethylene oxide, final concentration: 10%, Sigma Chemical) to the solution, and suspending the solution in physiological saline (Otsuka Physiological Saline for Injection, Otsuka Pharmaceutical). For evaluation of the effect, a tumor volume was calculated in accordance with Equation 1, a ratio of tumor volume (V) after the administration of drug solution to tumor volume (V0) before the administration of drug solution was calculation (V/V0), and the ratio was compared with that for the untreated group to determine T/C (Equation 2). In the table, administration dose, T/C and evaluation day are shown. [formula]

[3] = test system: HeLa S3 cells; assay: Test for growth inhibition of HeLa S3 cells; type: cell-based
Method: Test for Growth Inhibition of Hela S3 Cells
HeLa S3 cells prepared at 1×10^4 cells/ml in MEM culture medium containing 10% fetal bovine serum and 2 mM glutamine were added to each well of a 96-well microtiter plate (0.1 ml for each well). The cells were cultured at 37° C. in a CO2 incubator for 24 hours, and then 0.05 ml of test compound appropriately diluted with the above medium was added to each well, and then the mixture was cultured at 37° C. in a CO2 incubator for 72 hours. After the culture supernatant was removed, each well was washed with 0.1 ml of PBS buffer twice, and 0.1 ml of the aforementioned medium was added to each well again.
Cell Proliferation Kit II (Boehringer Mennheim) was used for measurement of cell number in each well. After a coloring reaction reagent was added, the plate was warmed to 37° C. in a CO2 incubator for 3 hours. Then, absorbances at 490 nm and 655 nm were measured by a microplate reader, and a value (difference of absorbance) was calculated for each well by subtracting the absorbance at […] from the absorbance at 490 nm. By comparing the differences of absorbance for cells without treatment and cells treated with a test compound at a known concentration, a concentration of test compound which inhibited the cell growth by 50% was calculated, and the value obtained was determined as IC50. The values of RNR inhibitory activity obtained in Example 8, and the values of cell growth inhibitory activity obtained in Example 9 are shown in the following tables (the compound numbers used in the tables correspond to the compound numbers shown in the aforementioned tables).

[4] = test system: human lung cancer Lu-65 cells; assay: Antineoplastic effect against human lung cancer Lu-65 cells transplanted to nude mice; type: in vivo, nude mice BALB/cAJcl-nu; settings: Lu-65 s.c. in nude mice; 1000 (500 × 2) mg/kg/day intraperitoneally twice a day for 5 days; evaluation day 7
Excerpt: Antineoplastic Effect Against Human Lung Cancer Lu-65 Cells
2 mm cubes (tumor fragments of 8 mm^3) of human lung cancer Lu-65 cells were subcutaneously transplanted to nude mice BALB/cAJcl-nu (CLEA JAPAN) on their abdomens. When the tumor volume reached to from 50 to 300 mm^3 after the transplantation, the mice were arbitrarily divided into groups each consisting of 5 mice, and intraperitoneally administered with a drug solution twice a day for 5 days. After weighing compounds, the drug solution was prepared before use by dissolving the drug in 99.5% ethanol (final concentration: 5%, analytical grade, Kanto Kagaku), adding CREMOPHOR EL (a derivative of caster oil and ethylene oxide, final concentration: 10%, Sigma Chemical) to the solution, and suspending the solution in physiological saline (Otsuka Physiological Saline for Injection, Otsuka Pharmaceutical). For evaluation of the effect, a tumor volume was calculated in accordance with Equation 1, a ratio of tumor volume (V) after the administration of drug solution to tumor volume (V0) before the administration of drug solution was calculated (V/V0), and the ratio was compared with that for the untreated group to determine T/C (Equation 2). [formula]

[5] = ip, 96 h, A2780 s.c. in nude mice, 500 mg/kg/day intraperitoneally once a day for 5 days, evaluation day 4
[6] = Homo sapiens, HeLa S3, 72 h, HeLa S3 cells, 72 hours with test compound, Cell Proliferation Kit II, read-out: Cell growth inhibition (IC50)
[7] = ip, 168 h, A2780 s.c. in nude mice, 500 mg/kg/day intraperitoneally once a day for 5 days, evaluation day 7

| SMILES | IC50 [1] | IC50 [3, 6] | other results |
| --- | --- | --- | --- |
| CC(C)(CSc1ccc(O)cc1)C(=O)N1CCN(C(=O)C(C)(C)CSc2ccc(O)cc2)CC1 [Compound 227] |  |  | response vs control in vivo at 500 mg/kg/day [2, 7]: 53% |
| NC(=O)CN(CCSc1ccc(O)cc1)CCSc1ccc(O)cc1 [Compound 97] |  |  | melting point: 105 to 106 °C; response vs control in vivo at 500 mg/kg/day [2, 7]: 43%; IC50 ([3]; HeLa S3 cells, 72 hours with test compound, Cell Proliferation Kit II, read-out: Cell growth inhibition (IC50)): 0.88 µM |
| Oc1ccc(SCCOCCSc2ccc(O)cc2)cc1 [Compound 27] | 0.5 µM |  | response vs control in vivo at 500 mg/kg/day ([2]; A2780, ip, 168 h): 46%; IC50 ([3]; Homo sapiens, HeLa S3, 72 h, read-out: Cell growth inhibition (IC50, μM)): 1.53 µM; Antitumor activity T/C [4]: 0.25 |
| Oc1ccc(SCCOCCSc2ccc(O)c(F)c2)cc1F [Compound 190] | 1.38 µM | 16.9 µM | melting point: 87 to 88 °C |
| CC(=O)Oc1ccc(SCCN(CCSc2ccc(OC(C)=O)cc2)CC(N)=O)cc1 [Compound 193] |  | 0.36 µM | response vs control in vivo at 250 mg/kg/day ([2]; ip, 96 h, A2780 s.c. in nude mice, 250 mg/kg/day intraperitoneally once a day for 5 days, evaluation day 4): 46% |
| Oc1ccc(SCCOCCOCCSc2ccc(O)cc2)cc1 [Compound 163] | 2.1 µM | 5.17 µM |  |
| Oc1ccc(SCc2cccc(CSc3ccc(O)cc3)n2)cc1 [Compound 1] | 4.26 µM | 5.15 µM |  |
| Oc1ccc(SCc2ccccc2CSc2ccc(O)cc2)cc1 [Compound 161] | 1.13 µM | 34.2 µM |  |
| CNCC(=O)Oc1ccc(SCCN(CCSc2ccc(OC(=O)CNC)cc2)CC(N)=O)cc1 [Compound 222] | 0.43 µM | 0.36 µM |  |
| O=C(CSc1ccc(O)cc1)C(=O)CSc1ccc(O)cc1 [Compound 186] | 11.9 µM | 56 µM |  |
| O=C(N1CCOCC1)N(CCSc1ccc(O)cc1)CCSc1ccc(O)cc1 [Compound 124] | 0.09 µM | 3.68 µM |  |
| Oc1ccc(SCCCCCCCSc2ccc(O)cc2)cc1 [Compound 138] | 2.29 µM | 18.3 µM |  |
| O=C(c1cccnc1)N(CCSc1ccc(O)cc1)CCSc1ccc(O)cc1 [Compound 116] | 4.13 µM | 3.02 µM |  |

Now from value to molecule, other results behind:

| IC50 [1] | IC50 [3, 6] | SMILES | other results |
| --- | --- | --- | --- |
| 1.37 µM | 3.06 µM | CN(C)C(=O)CCN(CCSc1ccc(O)cc1)CCSc1ccc(O)cc1 [Compound 79] | response vs control in vivo at 500 mg/kg/day [2, 5]: 40% |
| 0.06 µM | 2.38 µM | N#CCN(CCSc1ccc(O)cc1)CCSc1ccc(O)cc1 [Compound 77] | response vs control in vivo at 500 mg/kg/day [2, 5]: 54% |
| 1.58 µM | 4.97 µM | Oc1ccc(SCCN(CCSc2ccc(O)cc2)Cc2ccccn2)cc1 [Compound 100] | melting point: 80 to 81 °C |
| 0.46 µM | 4 µM | Oc1ccc(CN(CCSc2ccc(O)cc2)CCSc2ccc(O)cc2)cc1 [Compound 94] | response vs control in vivo at 500 mg/kg/day [2, 7]: 53% |
| 2.67 µM | 3.09 µM | NC(=O)C1CCCCN1C(=O)CN(CCSc1ccc(O)cc1)CCSc1ccc(O)cc1 (centres unmarked) [Compound 209] | response vs control in vivo at 500 mg/kg/day [2, 7]: 50% |
| 2.11 µM | 1.74 µM | COCCCN(CCSc1ccc(O)cc1)CCSc1ccc(O)cc1 [Compound 103] | response vs control in vivo at 500 mg/kg/day [2, 5]: 50% |
| 0.31 µM | 1.61 µM | NC(=O)CCN(CCSc1ccc(O)cc1)CCSc1ccc(O)cc1 [Compound 78] | response vs control in vivo at 500 mg/kg/day [2, 5]: 53% |
| 1.73 µM | 5.16 µM | Oc1ccc(SCCN(O)CCSc2ccc(O)cc2)cc1 [Compound 48] | response vs control in vivo at 500 mg/kg/day [2, 7]: 54% |
| 1.19 µM | 2.18 µM | CCCN(CCSc1ccc(O)cc1)CCSc1ccc(O)cc1 [Compound 72] | response vs control in vivo at 500 mg/kg/day [2, 5]: 50% |
| 1.69 µM | 2.72 µM | Oc1ccc(SCCN(CCSc2ccc(O)cc2)Cc2ccncc2)cc1 [Compound 91] | response vs control in vivo at 500 mg/kg/day [2, 5]: 48% |
| 3.24 µM | 3.04 µM | O=C(CN(CCSc1ccc(O)cc1)CCSc1ccc(O)cc1)Nc1ncccn1 [Compound 211] | response vs control in vivo at 500 mg/kg/day ([2]; ip, 216 h, A2780 s.c. in nude mice, 500 mg/kg/day intraperitoneally once a day for 5 days, evaluation day 9): 37% |
| 0.69 µM | 1.42 µM | OCCN(CCSc1ccc(O)cc1)CCSc1ccc(O)cc1 [Compound 102] | response vs control in vivo at 500 mg/kg/day [2, 7]: 47% |
| 2.03 µM | 6.38 µM | Oc1ccc(SCCN(CCSc2ccc(O)cc2)Cc2ccco2)cc1 [Compound 90] |  |
| 1.46 µM | 4.66 µM | Oc1ccc(SCCN(CCSc2ccc(O)cc2)Cc2cccs2)cc1 [Compound 89] |  |
| 4.86 µM | 4.85 µM | COCCOCCN(CCSc1ccc(O)cc1)CCSc1ccc(O)cc1 [Compound 198] |  |
